Experimental data taken from patent publication US9062028B2, “Bicyclic nitrogen containing heteroaryl TGR5 receptor modulators” (Bristol-Myers Squibb Company, priority 2011, dated 2015).
Structures can show the parent of a compound that is named as a salt.

Target: T1, recombinant human TGR5 (Homo sapiens, UniProt Q8TDU6)
T1 construct: expressed in transfected cells
T1 sequence (Q8TDU6 1-330): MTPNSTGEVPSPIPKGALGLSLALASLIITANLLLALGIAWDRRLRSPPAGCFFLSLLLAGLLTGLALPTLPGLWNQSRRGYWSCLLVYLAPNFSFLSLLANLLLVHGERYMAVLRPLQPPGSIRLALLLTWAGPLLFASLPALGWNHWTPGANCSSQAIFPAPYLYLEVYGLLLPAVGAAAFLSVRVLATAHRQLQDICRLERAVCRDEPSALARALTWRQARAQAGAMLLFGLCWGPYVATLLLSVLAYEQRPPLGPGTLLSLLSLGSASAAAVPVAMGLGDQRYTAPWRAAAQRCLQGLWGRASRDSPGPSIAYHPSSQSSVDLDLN
Assay: cAMP assay (cAMP accumulation, HTRF) in CHOK1 cells stably expressing TGR5
Type: cell-based
Details: CHOK1 cells stably expressing human TGR5, 30 minutes at RT, 1% DMSO
Summary of the method: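 CHOK1 cells stably expressing TGR5 (text also calls it chimeric human/mouse), 0.4-0.5×10^6 cells/mL in PBS with Ca/Mg and 0.1 mM IBMX, compound 30 min at RT, 1% DMSO. cAMP by HTRF 665/620 interpolated to a standard curve; EC50 from 4-parameter fit as half-maximal increase.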

Row | Molecule | EC50
1 | Cc1c(Cl)cccc1OCCCC(=O)N1C[C@@H]2C[C@@H]2c2c(-c3cnn(Cc4cccc(NC(=O)NCC(=O)O)c4)c3)cccc21 [Example 916, 2-(3-(3-((4-((1aR,7bS)-3-(4-(3-Chloro-2-methylphenoxy)butanoyl)-1a,2,3,7b-tetrahydro-1H-cyclopropa[c]quinolin-7-yl)-1H-pyrazol-1-yl)methyl)phenyl)ureido) acetic acid] | 37 nM
2 | Cc1cccc(N(CCCC(=O)N2CCCc3c(-c4cnn(Cc5cccc(C(=O)O)c5)c4)cccc32)C(=O)OC(C)(C)C)c1C [Example 933, 3-((4-(1-(4-(tert-Butoxycarbonyl(2,3-dimethylphenyl)amino)butanoyl)-1,2,3,4-tetrahydroquinolin-5-yl)-1H-pyrazol-1-yl)methyl)benzoic acid] | 1610 nM
3 | Cc1cccc(NCCCC(=O)N2CCCc3c(-c4cnn(Cc5cccc(C(=O)O)c5)c4)cccc32)c1C [Example 934, 3-((4-(1-(4-(2,3-Dimethylphenylamino)butanoyl)-1,2,3,4-tetrahydroquinolin-5-yl)-1H-pyrazol-1-yl)methyl)benzoic acid, TFA salt] | 191 nM
4 | (R)-5-tert-Butyl 1-methyl 2-(4- chloro-3-((4-((1aR,7bS)-3-((2- (3-chloro-2-methylphenoxy) ethoxy)carbonyl)-1a,2,3,7b- tetrahydro-1H-cyclopropa[c] quinolin-7-yl)-1H-pyrazol-1- yl)methyl)benzamido) pentanedioate [Example 669] | 1340 nM

Results, then the molecule that gave them:

Row | EC50 | Molecule
5 | 38 nM | Cc1c(Cl)cccc1OCCCC(=O)N1C[C@@H]2C[C@@H]2c2c(-c3cnn(Cc4cccc(N)c4)c3)cccc21 [Example 924A, 1-((1aR,7bS)-7-(1-(3-Aminobenzyl)-1H-pyrazol-4-yl)-1a,2-dihydro-1H-cyclopropa[c]quinolin-3(7bH)-yl)-4-(3-chloro-2-methylphenoxy)butan-1-one, TFA salt]
6 | 27 nM | CCOC(=O)CNC(=O)c1cccc(Cn2cc(-c3cccc4c3[C@H]3C[C@H]3CN4C(=O)CCCOc3cccc(Cl)c3C)cn2)c1 [Example 924B, Ethyl 2-(3-((4-((1aR,7bS)-3-(4-(3-chloro-2-methylphenoxy)butanoyl)-1a,2,3,7b-tetrahydro-1H-cyclopropa[c]quinolin-7-yl)-1H-pyrazol-1-yl)methyl)benzamido)acetate]
